Test results taken from patent US10420845B2, “Taggable heteroaromatic drugs and conjugates thereof” (Ramot at Tel-Aviv University Ltd., priority 2015, dated 2019).
Blank lines part the entries; values can stand above or below the molecule they belong to.

What was measured:
SF-295 = experiment: tumor cell-growth inhibition assay, SF-295 cells; type: cell-based; conditions: Homo sapiens; cell line SF-295
Protocol: (§1) In order to find out whether the new derivatives retain their potency, the cytotoxicity of the CPT-, TMZ- and bosutinib-ketone analogues was evaluated in comparison to that of the parent drugs.

[1] = test system: U-87 human primary glioblastoma cell; experiment: tumor cell-growth inhibition assay, U-87 cells; type: cell-based; conditions: U-87 MG
Protocol: as §1
To determine the usefulness of the drug analogues produced harboring a ketone for controlled release and bioconjugation. CPT-ketone 2a was selected for further evaluation. As presented in Scheme 1, a ketone functional group can be masked either through an acid-labile hydrazone linkage or with a photo-labile ketal protecting group. CPT-ketone 2a was masked with a photo-labile protecting group (Gravel et al., 1983; Klan et al., 2013) to produce ketal derivative 6 (FIG. 5). This derivative can be considered as prodrug form of CPT-ketone 2a. […] The cytotoxicity of prodrug 6 was then evaluated in a standard cell-growth inhibition assay before and after irradiation with UV light (FIG. 5B). […] In this example, the prodrug was activated with UV light; however, there are analogues protecting groups that can be removed through a visible or near infrared light (Lu et al., 2003).

HiFR KB cells = experiment: proliferation (MTT) assay on KB HiFR cells; type: cell-based; conditions: human
Protocol: Proliferation Assay KB HiFR were seeded in 96 well/plates, 2×10^3 cell/100 μL in folate depleted RPMI+10% FBS. After 24 h incubation at 37° C., 5% CO2, 100 μL of serial dilutions (200-0.00002 μM CPT equivalent concentrations) of CPT and CPT-derivatives were added to the wells (final concentration 100-0.00001 μM). In the short exposure (pulse and chase) experiment the treatments were removed after 10 min incubation at 37° C., 5% CO2, the cells were washed once with PBS and incubated with fresh folate depleted RPMI+10% FBS for 72 h. In the long exposure experiment, the cells were incubated for 72 h with the treatment. After 72 h incubation, 30 μL of […] of MTT (3-(4,5-dimethylthiazol-2-yl)-2,5-diphenyltetrazolium bromide) in PBS were added to each well, and incubated for 5 h. After incubation the medium was removed and the cells lysed in 200 μL DMSO and kept under gentle stirring protected from light for 20 min. Absorbance was measured at 560 nm and survival plotted as percentage of untreated control.

[2] = release of CPT-ketone 2a from prodrug 6 with and without UV irradiation; type: physicochemical
tumorous cell-lines = experiment: tumor cell-growth inhibition assays of ketone derivatives vs native drugs, several tumorous cell-lines; type: cell-based; conditions: repeated with several tumorous cell-lines
Protocol: as §1
The assays were repeated with several tumorous cell-lines and the obtained results were similar (FIGS. 3-4).

U-251 = experiment: tumor cell-growth inhibition assay, U-251 cells; type: cell-based; conditions: Homo sapiens; cell line U-251
Protocol: as §1

SMILES: CC[C@@]1(O)C(=O)OCc2c1cc1n(c2=O)Cc2cc3ccccc3nc2-1 [CPT, camptothecin, reference compound]
IC50 ([1]; cell line U-87): 7 nM

SMILES: CCC1(O)C(=O)OCc2c1cc1n(c2=O)Cc2c-1nc1ccccc1c2C(F)(F)CCCC(C)=O (stereo not shown) [CPT-ketone]
IC50 comparison, cytotoxicity on HiFR KB cells (HiFR KB cells): relatively similar IC50 values
IC50 ([1]; cell line U-87): 10 nM
IC50 ([1]; light or radiation study, comparator in prodrug 6 irradiation experiment): 5 nM

SMILES: CCC1(O)C(=O)OCc2c1cc1n(c2=O)Cc2c-1nc1ccccc1c2C(F)(F)CCCC1(C)OCC(c2cc(OC)c(OC)cc2[N+](=O)[O-])O1 (stereo not shown) [Compound 6]
IC50 ([1]; light or radiation study, prodrug after irradiation with UV light): 10 nM
IC50 ([1]; light or radiation study, prodrug before irradiation with UV light): 350 nM
release of CPT-ketone 2a ([2]; irradiation with UV light over 2 hours under physiological conditions): resulted in release of CPT-ketone 2a
release of CPT-ketone 2a ([2]; without irradiation): No release was observed

SMILES: CC(=O)CCCC(F)(F)c1nc2nc(N)nc(N)c2nc1CN(C)c1ccc(C(=O)NC(CCC(=O)O)C(=O)O)cc1 (stereo not shown) [MTX-ketone]
cytotoxicity of ketone analogue compared with native drug (tumorous cell-lines): completely lost its cytotoxicity

Now from value to molecule:

IC50 (SF-295): 17000 nM
SMILES: COc1cc(Nc2c(C#N)cnc3cc(OCCCN4CCN(C)CC4)c(OC)cc23)c(Cl)cc1Cl [Bosutinib, bosutinib, reference compound]

IC50 (SF-295): 17000 nM
SMILES: COc1cc(Nc2c(C#N)c(C(F)(F)CCCC(C)=O)nc3cc(OCCCN4CCN(C)CC4)c(OC)cc23)c(Cl)cc1Cl [Bosutinib-ketone]

IC50 (U-251): 36000 nM
SMILES: Cn1nnc2c(C(N)=O)ncn2c1=O [TMZ, temozolomide, reference compound]

IC50 (U-251): 35000 nM
SMILES: CC(=O)CCCC(F)(F)c1nc(C(N)=O)c2nnn(C)c(=O)n12 [TMZ-ketone]
